Assay results published in patent US20240166635A1, “AMINOHETEROARYL KINASE INHIBITORS” (Anrui Biomedical Technology (Guangzhou) Co.,Ltd., priority 2020, published 2024).
pIC50: −log10 of the molar value.

Tests used:
Type in all cases: biochemical
CDK7/CyclinH/MAT1 = CDK7/CyclinH/MAT1 (Homo sapiens (Human), UniProt P50613); assay: CDK7/CyclinH/MAT1 kinase inhibitory activity (Caliper mobility shift)
CDK2/CyclinE1 = CDK2/CyclinE1 (Homo sapiens (Human), UniProt P24941); assay: CDK2/CyclinE1 kinase inhibitory activity (Caliper mobility shift); conditions: read-out: CDK2/Cyclin El IC50
CDK1/CyclinB = CDK1/CyclinB (Homo sapiens (Human), UniProt P06493); assay: CDK1/CyclinB kinase inhibitory activity (Caliper mobility shift); conditions: read-out: CDK1/Cyclin B1 IC50
CDK1/CyclinB, sequence (P06493 whole entry): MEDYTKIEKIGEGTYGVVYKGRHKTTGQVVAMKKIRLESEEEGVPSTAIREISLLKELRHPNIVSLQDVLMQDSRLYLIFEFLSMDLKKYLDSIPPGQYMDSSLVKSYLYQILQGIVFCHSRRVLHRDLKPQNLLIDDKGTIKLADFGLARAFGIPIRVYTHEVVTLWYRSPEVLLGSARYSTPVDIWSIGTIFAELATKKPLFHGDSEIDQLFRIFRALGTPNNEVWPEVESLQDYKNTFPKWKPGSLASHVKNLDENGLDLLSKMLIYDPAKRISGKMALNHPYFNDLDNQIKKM
CDK1/CyclinB, sequence (P14635 whole entry partner): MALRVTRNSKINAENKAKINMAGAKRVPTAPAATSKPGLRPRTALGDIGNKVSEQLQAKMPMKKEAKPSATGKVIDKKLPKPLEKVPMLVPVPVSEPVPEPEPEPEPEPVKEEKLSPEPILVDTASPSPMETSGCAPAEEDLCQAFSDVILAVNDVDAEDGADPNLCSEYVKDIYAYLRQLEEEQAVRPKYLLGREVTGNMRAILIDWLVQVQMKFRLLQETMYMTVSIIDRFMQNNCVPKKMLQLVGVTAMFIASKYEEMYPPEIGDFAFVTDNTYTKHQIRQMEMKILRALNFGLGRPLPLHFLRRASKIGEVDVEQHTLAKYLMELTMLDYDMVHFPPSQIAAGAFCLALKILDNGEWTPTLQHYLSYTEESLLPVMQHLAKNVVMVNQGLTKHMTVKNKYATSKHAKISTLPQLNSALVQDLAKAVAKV

CDK9/CyclinT1 = CDK9/CyclinT1 (Homo sapiens (Human), UniProt P50750); assay: CDK9/CyclinT1 kinase inhibitory activity (Caliper mobility shift); conditions: read-out: CDK9/Cyclin T1 IC50
CDK9/CyclinT1, sequence (P50750 whole entry): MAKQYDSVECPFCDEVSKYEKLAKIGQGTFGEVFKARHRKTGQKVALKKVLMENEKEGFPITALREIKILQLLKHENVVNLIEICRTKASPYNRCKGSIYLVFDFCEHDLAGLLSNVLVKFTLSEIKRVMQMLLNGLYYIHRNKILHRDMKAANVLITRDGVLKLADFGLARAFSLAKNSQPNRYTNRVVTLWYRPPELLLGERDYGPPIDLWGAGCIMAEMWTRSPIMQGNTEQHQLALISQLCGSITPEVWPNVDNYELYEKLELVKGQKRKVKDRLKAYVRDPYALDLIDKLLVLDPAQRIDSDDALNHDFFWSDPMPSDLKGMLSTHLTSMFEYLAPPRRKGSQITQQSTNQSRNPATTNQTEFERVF
CDK9/CyclinT1, sequence (O60563 whole entry partner): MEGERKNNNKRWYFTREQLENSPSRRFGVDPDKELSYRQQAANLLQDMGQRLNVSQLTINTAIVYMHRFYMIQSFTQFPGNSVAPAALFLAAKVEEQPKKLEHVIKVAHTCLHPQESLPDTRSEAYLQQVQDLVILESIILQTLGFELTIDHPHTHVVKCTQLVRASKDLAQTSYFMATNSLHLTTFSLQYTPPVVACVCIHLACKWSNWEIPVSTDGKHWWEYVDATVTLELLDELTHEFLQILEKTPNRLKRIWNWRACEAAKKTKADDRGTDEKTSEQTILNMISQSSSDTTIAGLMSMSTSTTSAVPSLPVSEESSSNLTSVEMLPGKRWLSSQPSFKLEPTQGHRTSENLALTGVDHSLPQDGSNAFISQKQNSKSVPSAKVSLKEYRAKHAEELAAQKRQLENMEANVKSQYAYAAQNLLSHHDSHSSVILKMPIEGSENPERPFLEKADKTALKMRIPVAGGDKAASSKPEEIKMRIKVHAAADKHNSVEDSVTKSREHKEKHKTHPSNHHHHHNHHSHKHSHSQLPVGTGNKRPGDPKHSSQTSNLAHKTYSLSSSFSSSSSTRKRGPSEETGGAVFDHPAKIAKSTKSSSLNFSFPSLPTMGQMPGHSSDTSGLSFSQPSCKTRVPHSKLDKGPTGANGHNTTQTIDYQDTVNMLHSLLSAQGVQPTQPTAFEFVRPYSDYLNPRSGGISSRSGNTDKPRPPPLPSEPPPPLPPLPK

CDK6/CyclinD1 = CDK6/CyclinD1 (Homo sapiens (Human), UniProt Q00534); assay: CDK6/CyclinD1 kinase inhibitory activity (Caliper mobility shift); conditions: read-out: CDK6/Cyclin D1 IC50
CDK6/CyclinD1, sequence (Q00534 whole entry): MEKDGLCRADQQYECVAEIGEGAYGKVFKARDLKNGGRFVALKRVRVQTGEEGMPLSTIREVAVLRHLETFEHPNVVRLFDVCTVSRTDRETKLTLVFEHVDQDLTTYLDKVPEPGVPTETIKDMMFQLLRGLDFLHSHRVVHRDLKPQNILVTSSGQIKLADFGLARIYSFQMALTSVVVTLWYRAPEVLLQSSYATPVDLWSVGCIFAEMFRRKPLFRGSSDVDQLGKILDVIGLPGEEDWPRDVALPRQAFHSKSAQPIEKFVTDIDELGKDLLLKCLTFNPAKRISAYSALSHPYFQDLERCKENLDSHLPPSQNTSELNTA
CDK6/CyclinD1, sequence (P24385 whole entry partner): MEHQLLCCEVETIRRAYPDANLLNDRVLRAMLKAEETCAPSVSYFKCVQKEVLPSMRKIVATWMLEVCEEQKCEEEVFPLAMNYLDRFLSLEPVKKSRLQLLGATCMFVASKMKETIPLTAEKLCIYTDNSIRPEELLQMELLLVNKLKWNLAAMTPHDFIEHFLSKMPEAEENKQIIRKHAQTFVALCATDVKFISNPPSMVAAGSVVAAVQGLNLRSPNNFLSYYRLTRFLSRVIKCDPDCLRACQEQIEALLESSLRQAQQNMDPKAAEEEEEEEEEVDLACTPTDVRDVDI

CDK7/CyclinH/MAT1, sequence (P50613 whole entry): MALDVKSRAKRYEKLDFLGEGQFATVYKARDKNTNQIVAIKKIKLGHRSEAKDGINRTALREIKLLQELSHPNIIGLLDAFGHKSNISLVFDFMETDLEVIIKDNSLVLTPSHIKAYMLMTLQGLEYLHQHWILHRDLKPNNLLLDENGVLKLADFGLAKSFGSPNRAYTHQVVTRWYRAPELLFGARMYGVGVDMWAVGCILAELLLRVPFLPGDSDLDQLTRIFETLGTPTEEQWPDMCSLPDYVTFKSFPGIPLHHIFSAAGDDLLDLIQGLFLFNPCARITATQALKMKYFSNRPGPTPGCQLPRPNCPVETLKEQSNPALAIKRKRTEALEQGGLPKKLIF
CDK7/CyclinH/MAT1, sequence (P51946 whole entry partner): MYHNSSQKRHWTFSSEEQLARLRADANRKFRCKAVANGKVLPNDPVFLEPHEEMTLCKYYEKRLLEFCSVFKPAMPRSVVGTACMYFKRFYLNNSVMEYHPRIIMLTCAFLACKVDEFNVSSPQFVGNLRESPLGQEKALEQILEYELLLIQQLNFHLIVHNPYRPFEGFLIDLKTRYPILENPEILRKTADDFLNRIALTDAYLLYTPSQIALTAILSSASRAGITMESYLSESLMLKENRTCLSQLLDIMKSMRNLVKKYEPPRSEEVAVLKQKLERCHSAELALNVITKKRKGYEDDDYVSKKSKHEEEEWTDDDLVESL
CDK7/CyclinH/MAT1, sequence (P51948 whole entry partner): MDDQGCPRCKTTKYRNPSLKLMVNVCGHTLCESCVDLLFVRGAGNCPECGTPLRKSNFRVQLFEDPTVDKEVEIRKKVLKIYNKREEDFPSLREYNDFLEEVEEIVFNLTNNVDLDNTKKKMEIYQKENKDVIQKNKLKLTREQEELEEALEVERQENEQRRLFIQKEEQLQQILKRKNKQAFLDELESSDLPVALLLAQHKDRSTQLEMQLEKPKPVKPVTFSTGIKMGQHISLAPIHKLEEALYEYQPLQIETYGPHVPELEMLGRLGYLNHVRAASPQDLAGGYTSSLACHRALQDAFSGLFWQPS

| SMILES | pIC50 (CDK7/CyclinH/MAT1) | pIC50 (CDK2/CyclinE1) | pIC50 (CDK1/CyclinB) | pIC50 (CDK9/CyclinT1) | pIC50 (CDK6/CyclinD1) |
| --- | --- | --- | --- | --- | --- |
| CS(=O)(=O)N1CCC(Nc2ncc(C#N)c(N3CCCCC3)n2)CC1 [Example 89] | ≤ 6.00 | 7.00 to 8.00 | 6.00 to 7.00 | ≤ 6.00 | – |
| N#Cc1cnc(Nc2ccc(S(N)(=O)=O)cc2)nc1N1CCCC1 [Example 67] | ≤ 6.00 | 7.00 to 8.00 | 6.00 to 7.00 | 6.00 to 7.00 | – |
| C[C@H]1CCCN(c2nc(Nc3ccc(S(N)(=O)=O)cc3)ncc2C#N)C1 [Example 71] | ≤ 6.00 | > 8.00 | 7.00 to 8.00 | 7.00 to 8.00 | 6.00 to 7.00 |
| N#Cc1cnc(Nc2ccc(S(N)(=O)=O)cc2)nc1-c1ccccc1 [Example 93] | ≤ 6.00 | 7.00 to 8.00 | 6.00 to 7.00 | 6.00 to 7.00 | ≤ 6.00 |
| N#Cc1cnc(Nc2ccc(S(N)(=O)=O)cc2)nc1OCC1(CO)CCCC1 [Example 15] | 6.00 to 7.00 | > 8.00 | 7.00 to 8.00 | 6.00 to 7.00 | 6.00 to 7.00 |
| C[C@@H]1CCCCN1c1nc(Nc2ccc(S(N)(=O)=O)cc2)ncc1C#N [Example 73] | 6.00 to 7.00 | > 8.00 | 7.00 to 8.00 | 6.00 to 7.00 | 6.00 to 7.00 |
| C[C@H]1CCCCN1c1nc(Nc2ccc(S(N)(=O)=O)cc2)ncc1C#N [Example 74] | ≤ 6.00 | > 8.00 | 7.00 to 8.00 | 6.00 to 7.00 | 6.00 to 7.00 |
| NS(=O)(=O)N1CCC(Nc2ncc(C(F)(F)F)c(OC3CCCCCC3O)n2)CC1 (single isomer, unassigned) [Example 122b] | 7.00 to 8.00 | > 8.00 | 7.00 to 8.00 | 7.00 to 8.00 | – |
| CS(=O)(=O)N1CCC(Nc2ncc(C(F)(F)F)c(OC3CCCCCC3O)n2)CC1 (single isomer, unassigned) [Example 121a] | 7.00 to 8.00 | > 8.00 | 7.00 to 8.00 | 6.00 to 7.00 | – |
| Cc1cnc(Nc2ccc(S(=O)(=O)NC(C)C)cc2)nc1OC1CCCC1O (single isomer, unassigned) [Example 147b] | – | 7.00 to 8.00 | 6.00 to 7.00 | 6.00 to 7.00 | – |
| NS(=O)(=O)N1CCC(Nc2ncc(C(F)(F)F)c(OC3CCCCCC3O)n2)CC1 (single isomer, unassigned) [Example 122a] | – | > 8.00 | 6.00 to 7.00 | 6.00 to 7.00 | – |
| CNS(=O)(=O)N1CCC(Nc2ncc(C(F)(F)F)c(OC3CCCCCC3O)n2)CC1 (single isomer, unassigned) [Example 123a] | – | 7.00 to 8.00 | 6.00 to 7.00 | 6.00 to 7.00 | – |
| [2H]C([2H])([2H])NS(=O)(=O)c1ccc(Nc2ncc(CC)c(OC3CCOCC3(C)O)n2)cc1 (single isomer, unassigned) [Example 152b] | – | 7.00 to 8.00 | ≤ 6.00 | ≤ 6.00 | – |
| CS(=O)(=O)N1CCC(Nc2ncc(C(F)(F)F)c(OC3CCCCC3O)n2)CC1 (single isomer, unassigned) [Example 120b] | – | 7.00 to 8.00 | 6.00 to 7.00 | ≤ 6.00 | – |
| CC(C)NS(=O)(=O)c1ccc(Nc2ncc(Cl)c(OC3CCCC3O)n2)cc1 (single isomer, unassigned) [Example 138b] | – | > 8.00 | 7.00 to 8.00 | 6.00 to 7.00 | – |
| [2H]C([2H])([2H])NS(=O)(=O)c1ccc(Nc2ncc(Cl)c(OC3COCC3(C)O)n2)cc1 (single isomer, unassigned) [Example 140b] | – | 7.00 to 8.00 | ≤ 6.00 | ≤ 6.00 | – |

The remaining lines, values ahead:

| pIC50 (CDK7/CyclinH/MAT1) | pIC50 (CDK2/CyclinE1) | pIC50 (CDK1/CyclinB) | pIC50 (CDK9/CyclinT1) | pIC50 (CDK6/CyclinD1) | SMILES |
| --- | --- | --- | --- | --- | --- |
| – | > 8.00 | – | – | 6.00 to 7.00 | CNS(=O)(=O)c1ccc(Nc2ncc(C(F)(F)F)c(O[C@H]3CCCOC[C@H]3O)n2)cc1 (single isomer, unassigned) [Example 103b, cis-4-((4-((3-hydroxyoxepan-4-yl)oxy)-5-(trifluoromethyl)pyrimidin-2-yl)amino)-N-(methyl-d3)benzenesulfonamide] |
| ≤ 6.00 | – | 6.00 to 7.00 | – | 6.00 to 7.00 | [2H]C([2H])([2H])NS(=O)(=O)c1ccc(Nc2ncc(C(F)(F)F)c(OC3CCOCCC3O)n2)cc1 (single isomer, unassigned) [Example 102d, 4-((4-((5-hydroxyoxepan-4-yl)oxy)-5-(trifluoromethyl)pyrimidin-2-yl)amino)-N-(methyl-d3)benzenesulfonamide] |
| 6.00 to 7.00 | > 8.00 | 7.00 to 8.00 | 6.00 to 7.00 | – | N#Cc1cnc(Nc2ccc(S(N)(=O)=O)cc2)nc1N1CCC[C@H](O)C1 [Example 69] |
| ≤ 6.00 | 7.00 to 8.00 | 6.00 to 7.00 | 6.00 to 7.00 | – | N#Cc1cnc(Nc2ccc(S(N)(=O)=O)cc2)nc1N1CCC[C@@H](O)C1 [Example 70] |
| 7.00 to 8.00 | > 8.00 | 7.00 to 8.00 | – | – | NS(=O)(=O)c1ccc(Nc2ncc(C(F)(F)F)c(OC3COCCC3O)n2)cc1 (single isomer, unassigned) [Example 115a] |
| 6.00 to 7.00 | – | 7.00 to 8.00 | – | 6.00 to 7.00 | [2H]C([2H])([2H])NS(=O)(=O)c1ccc(Nc2ncc(C(F)(F)F)c(OC3CCOCCC3O)n2)cc1 (single isomer, unassigned) [Example 102b, 4-((4-((5-hydroxyoxepan-4-yl)oxy)-5-(trifluoromethyl)pyrimidin-2-yl)amino)-N-(methyl-d3)benzenesulfonamide] |
| ≤ 6.00 | – | 6.00 to 7.00 | – | 6.00 to 7.00 | [2H]C([2H])([2H])NS(=O)(=O)c1ccc(Nc2ncc(C(F)(F)F)c(OC3CCOCCC3O)n2)cc1 (single isomer, unassigned) [Example 102c, 4-((4-((5-hydroxyoxepan-4-yl)oxy)-5-(trifluoromethyl)pyrimidin-2-yl)amino)-N-(methyl-d3)benzenesulfonamide] |
| – | 7.00 to 8.00 | 6.00 to 7.00 | 6.00 to 7.00 | – | N#Cc1cnc(Nc2ccc(S(N)(=O)=O)cc2)nc1OC1CCCC(O)C1 (single isomer, unassigned) [Example 21b] |
| – | > 8.00 | 7.00 to 8.00 | 6.00 to 7.00 | – | CC(C)NS(=O)(=O)c1ccc(Nc2ncc(C(F)(F)F)c(OC3CCCC3O)n2)cc1 (single isomer, unassigned) [Example 106b] |
| – | > 8.00 | 7.00 to 8.00 | 6.00 to 7.00 | – | NS(=O)(=O)c1ccc(Nc2ncc(C(F)(F)F)c(O[C@H]3[C@@H]4CC[C@@H](C4)[C@H]3O)n2)cc1 (single isomer, unassigned) [Example 113b] |
| – | > 8.00 | 7.00 to 8.00 | 7.00 to 8.00 | – | C[C@@H]1C[C@H](O)CCN1c1nc(Nc2ccc(S(N)(=O)=O)cc2)ncc1C#N [Example 75] |
| – | > 8.00 | 7.00 to 8.00 | 6.00 to 7.00 | – | N#Cc1cnc(Nc2ccc(S(N)(=O)=O)cc2)nc1OC1CCCC1CO (single isomer, unassigned) [Example 18b] |
| 6.00 to 7.00 | > 8.00 | > 8.00 | > 8.00 | – | NS(=O)(=O)c1ccc(Nc2ncc(C(F)(F)F)c(OC3CCCCCC3O)n2)cc1 (single isomer, unassigned) [Example 118a] |
| – | > 8.00 | 7.00 to 8.00 | 6.00 to 7.00 | – | CNS(=O)(=O)c1ccc(Nc2ncc(Br)c(OC3CCCC3O)n2)cc1 (single isomer, unassigned) [Example 142b] |
| – | 7.00 to 8.00 | 6.00 to 7.00 | 6.00 to 7.00 | – | NS(=O)(=O)c1ccc(Nc2ncc(C(F)(F)F)c(OC3CCOCC3O)n2)cc1 (single isomer, unassigned) [Example 114b] |
